Each block holds one molecule with its values, some of them ahead of it.
Legend:
[1] = Colour stability in fine fragrance (ethanol solution, indoor daylight); assay type: physicochemical; conditions: 1 and 0.5% wt/wt in 96% EtOH, glass vials, visual inspection
Protocol: A solution of the test compound (compound of formula (I) specified in the Table below) was prepared in perfumery grade ethanol (96% EtOH, 4% water) at 1 and 0.5% wt/wt. The solutions were placed in 2.5 ml transparent glass vials closed with plastic lids. The vials were placed behind a window exposed to indoor daylight. The colour of the solutions was inspected visually over a 1 month period.

[2] = Colour stability in bar soap; assay type: physicochemical; conditions: tallow toilet soap, 2% wt/wt of a 10% wt/wt solution in DPG, 1 month at 45° C.
Protocol: The extruded 24×8 mm soap string was cut into 8 cm pieces, which were placed in a thermostated oven for 1 month at 45° C. A control sample containing no fragrance was added to the stability test series.

[3] = Odour perception threshold; conditions: in air
[4] = tested on: KeratinoSens™ cell line (Luciferase gene under the control of the ARE-element of the gene AKR1C2); experiment: KeratinoSens assay for skin sensitization (luciferase gene induction); assay type: cell-based; conditions: for luciferase gene induction relative to the 1.5-fold threshold: 48 h incubation, 0.98 to 2000 μM, FIG. 1; for skin sensitization rating by the KeratinoSens assay: positive if EC1.5 below 1000 μM, viability above 70%, dose-response
Protocol: The KeratinoSens™ cell line contains a stable insertion of a Luciferase gene under the control of the ARE-element of the gene AKR1C2. The optimization of this cell line and the standard method to test chemicals has been described in detail in Emter et. al. 2010 (Emter R., Ellis G., Natsch A., 2010 “Performance of a novel keratinocyte-based reporter cell line to screen skin sensitizers in vitro. Toxicol Appl Pharmacol 245, 281-290). Cells were grown for 24 h in 96-well plates. The medium was then replaced with medium containing the test chemical and the solvent Dimethylsulfoxide (DMSO) at a final level of 1%. Each compound was tested at 12 binary dilutions in the range from 0.98 to 2000 μM. In each repetition, three parallel replicate plates were run with this same set-up and a fourth parallel plate was prepared for cytotoxicity determination using an MTT assay. Cells were incubated for 48 h with the test agents, and then luciferase activity and cytotoxicity were determined. This full procedure was repeated at least three times for each chemical. For each chemical in each repetition and at each concentration, the gene induction compared to DMSO controls and the wells with statistically significant induction over the threshold of 1.5 (i.e. 50% enhanced gene activity) were determined. Furthermore the maximal fold-induction (Imax) and the EC1.5 value (concentration in μM for induction above the threshold) were calculated. Chemicals are rated as positive (i.e. likely skin-sensitizers) in the assay if the following three criteria are fulfilled (i) The EC1.5 value is below 1000 μM in all three repetitions or in at least 2 repetitions, (ii) at the lowest concentration with a gene induction above 1.5 fold (i.e. at the EC 1.5 determining value), the cellular viability is above 70% and (iii) there is an apparent overall dose-response for luciferase induction, which is similar between the repetitions.

[5] = tested on: KeratinoSens™ cell line; experiment: Cytotoxicity determination using an MTT assay in the KeratinoSens assay; assay type: cell-based; conditions: 48 h, oxime: no significant cytotoxicity up to the value, Isoeugenol: cytotoxic above the value
Protocol: The KeratinoSens™ cell line contains a stable insertion of a Luciferase gene under the control of the ARE-element of the gene AKR1C2. The optimization of this cell line and the standard method to test chemicals has been described in detail in Emter et. al. 2010 (Emter R., Ellis G., Natsch A., 2010 “Performance of a novel keratinocyte-based reporter cell line to screen skin sensitizers in vitro. Toxicol Appl Pharmacol 245, 281-290). Cells were grown for 24 h in 96-well plates. The medium was then replaced with medium containing the test chemical and the solvent Dimethylsulfoxide (DMSO) at a final level of 1%. Each compound was tested at 12 binary dilutions in the range from 0.98 to 2000 μM. In each repetition, three parallel replicate plates were run with this same set-up and a fourth parallel plate was prepared for cytotoxicity determination using an MTT assay. Cells were incubated for 48 h with the test agents, and then luciferase activity and cytotoxicity were determined. […] For each chemical in each repetition and at each concentration, the gene induction compared to DMSO controls and the wells with statistically significant induction over the threshold of 1.5 (i.e. 50% enhanced gene activity) were determined. Furthermore the maximal fold-induction (Imax) and the EC1.5 value (concentration in μM for induction above the threshold) were calculated. […]

[6] = Colour stability in colourless consumer base; assay type: physicochemical; conditions: dosed in a colourless consumer base at 0.02%, storage 4 weeks at 45 ° C.
Protocol: By the term “colour stable” is meant that when dosed in a colourless consumer base at 0.02% and held under storage for 4 weeks at 45 ° C., bases containing the compounds of formula (I) remain colourless upon visual inspection. On the other hand, bases containing iso-eugenol and iso-eugenol “[…]” such as vanillin at the same concentration were discoloured, variously appearing to have yellowish, orange, […] or brown hues.

SMILES: CCOc1cc(C=O)ccc1O [Ethyl Vanillin]
Colour of ethanol solution after 1 month [1]: yellow
Colour of ethanol solution after 1 month ([1]; listed as ethyl vanillin): unacceptable yellow colour
colour of soap after one month [2]: chocolate brown

SMILES: CC/C=C\CC/C=C/C=N/OC [(1E,2E,6Z)-nona-2,6-dienal O-methyl oxime]
perception threshold [3]: 2.94 ng/L

SMILES: CO/N=C/CC(C)c1cccc(C(C)C)c1 (centres unmarked) [E)-3-(3-isopropylphenyl)butanal O-methyl oxime]
perception threshold [3]: 22.4 ng/L

SMILES: CC/C=C\CC/C=C/C=O [(2E,6Z)-nona-2,6-dienal]
perception threshold [3]: 0.06 ng/L

Colour of ethanol solution after 1 month [1]: colourless
colour of soap after one month [2]: remained as control
SMILES: CCOc1cc(C=NOC)ccc1O [Cpd I (R1 = Et, R2 = Me), 3-ethoxy-4-hydroxybenzaldehyde O-methyl oxime]
luciferase gene induction relative to the 1.5-fold threshold [4]: did not induce luciferase activity above the 1.5-fold threshold
skin sensitization rating by the KeratinoSens assay [4]: non-sensitizing
concentration above which cytotoxic (cell viability) [5]: > 1000 µM
Colour of ethanol solution after 1 month ([1]; listed as compound I): would have passed the requirements for colourless fine fragrance

SMILES: CC(C)c1cccc(C(C)CC=O)c1 (centres unmarked) [3-(3-isopropylphenyl)butanal]
perception threshold [3]: 0.07 ng/L

Colour of ethanol solution after 1 month [1]: yellow
Colour of ethanol solution after 1 month ([1]; listed as vanillin): unacceptable yellow colour
colour of consumer base upon visual inspection [6]: discoloured
SMILES: COc1cc(C=O)ccc1O [Vanillin]

colour of consumer base upon visual inspection [6]: discoloured
SMILES: CC=Cc1ccc(O)c(OC)c1 [Isoeugenol]
luciferase gene induction relative to the 1.5-fold threshold [4]: clearly induces the gene already in the lower micromolar range
skin sensitization rating by the KeratinoSens assay [4]: sensitizing
concentration above which cytotoxic (cell viability) [5]: above 500 micromolar

Reference: patent publication US20150299614A1, “IMPROVEMENTS IN OR RELATING TO ORGANIC COMPOUNDS” (Givaudan, S.A., priority 2012, published 2015)
